Data taken from publication PMC7321408, “One-Pot Multicomponent Synthesis and Bioevaluation of Tetrahydroquinoline Derivatives as Potential Antioxidants, α-Amylase Enzyme Inhibitors, Anti-Cancerous and Anti-Inflammatory Agents” (Molecules, 2020).
Values after ≈ are worked out from the molar mass of the structure shown. Values joined by “and” are separate entries in the source; they are usually repeats but may differ in a detail not shown here. Identical values can stand only once. Like-named read-outs stand apart in the source and are kept apart here.

Experiments:
[1] = Total reducing power (TRP) assay
Description: A TRP assay was carried out to evaluate the reducing potential of synthetic compounds. The method implicates reductones. These reductones are species with antioxidant potential that is believed to be due to their proton-donating capacity. […] The maximum value of reducing power was 104.7 ± 1.9 µg/AAE for SF5, followed by 103.18 ± 2.4 µg/AAE for SF7 and 84.57 ± 1.9 µg/AAE for SF12 (Figure 3 and Figure 4 (standard curve)).
The assay is based on the reduction of Fe^+3 to Fe^+2. The method described by Khan et al. was used with slight modifications. One hundred microliters of test samples (4 mg/mL DMSO) were taken in an Eppendrof tube and 200 μL of phosphate buffer (0.2 mol/L, pH 6.6) and 250 µL of 1% potassium ferricyanide (K3Fe CN)6) were added. This was allowed to incubate at 50 °C for 20 min. Later on, 200 μL of 10% trichloroacetic acid (TCA) was added to the mixture. The mixture was centrifuged at 3000 rpm at room temperature for 10 min. After centrifugation, 150 µL of supernatant were transferred to microplate with FeCl3 (50 μL, 0.1%) and the absorbance was taken at 630 nm. The results were calculated as µg AAE/mg.

[2] = DPPH free radical scavenging assay; details: mean ± SEM, n = 3; for IC50 (DPPH radical scavenging): concentration to scavenge 50% of the DPPH radicals
In short: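 Compounds at 200, 66.6, 22.2 and 7.4 µg/mL were mixed with DPPH radical, with DMSO as the negative control. Absorbance was read at 630 nm, and % scavenging was calculated as (1 − Abs/Abc) × 100 against the control.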

[3] = tested on: NO generated by LPS-induced macrophages; experiment: Nitric oxide assay (Griess) in LPS-induced macrophages; format: cell-based, murine; details: Mus musculus, Macrophage, 18 h, LPS 1 µg/mL, read-out: % NO Production (Mean ± SEM)
In short: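 Murine macrophages (1 × 10^6/well) pre-treated 2 h with compound at 100, 50, 10 or 1 µM, then LPS 1 µg/mL for 18 h. Nitrite in medium measured with Griess reagent at 540 nm against a NaNO2 standard curve; piroxicam as positive control, t-test for significance.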

Hep-2C cells = experiment: MTT assay against Hep-2C cells; format: cell-based, Human; details: Homo sapiens, Hep2C, read-out: IC50 (Mean ± SEM) Hep-2C Cells
In short: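 Human cervix carcinoma Hep-2C cells in DMEM with 10% FCS, seeded at 1 × 10^6 and exposed to test compounds for 24, 48 and 72 h. MTT (1 mg per mL) added for 4 h, formazan dissolved in DMSO, absorbance at 570 nm. Viability % versus untreated cells after blank subtraction.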

brine shrimp nauplii = experiment: Brine shrimp lethality bioassay; format: in vivo; details: 24 h, n = 3
In short: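 Ten hatched nauplii per well in artificial seawater were exposed to test compounds at 400, 200, 100 and 50 µg/mL under a lamp. Survivors counted after 24 h; percentage mortality calculated; triplicate.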

Row | IC50 (DPPH radical scavenging) [2] [µg/mL] | SMILES | Total reducing power (TRP) [1] [µg/AAE] | % DPPH Scavenging Activity ([2]; 7.4 µg/mL) [%] | % DPPH Scavenging Activity ([2]; 22.22 µg/mL) [%] | % DPPH Scavenging Activity ([2]; 66.66 µg/mL) [%] | % DPPH Scavenging Activity ([2]; 200 µg/mL) [%] | activity at 1 µM [3] [%] | activity at 10 µM [3] [%] | activity at 50 µM [3] [%] | activity at 100 µM [3] [%] | IC50 (Hep-2C cells; 24 h) [µM] | IC50 (Hep-2C cells; 48 h) [µM] | IC50 (Hep-2C cells; 72 h) [µM] | LD50 ± SEM (brine shrimp lethality) (brine shrimp nauplii)
1 | 44.22 ± 0.25 (≈ 192 µM) | c1ccc2c(c1)CCCN2CN1CCCCC1 [SF1, 1-(Piperidine-1-ylmethyl) 1,2,3,4-tetrahahydroquinoline] | 33.22 ± 1.5 | 11.91 ± 0.32 | 27.76 ± 0.11 | 50.08 ± 0.18 | 62.45 ± 0.12 | 27.8 ± 0.45 | 26 ± 0.43 | 23.7 ± 0.41 | 17.3 ± 0.35 | 28 ± 1.07 | 21.8 ± 1.1 | 14.8 ± 1.07 | 120 ± 2.3 µg/mL and 120.8 ± 2.3 µg/mL
2 | 56.63 ± 0.32 (≈ 231 µM) | CN1CCN(CN2CCCc3ccccc32)CC1 [SF5] | 104.7 ± 1.9 | 7.76 ± 0.23 | 17.39 ± 0.16 | 28.77 ± 0.14 | 45.24 ± 0.28 | 51.43 ± 0.48 | 43 ± 0.45 | 28.6 ± 0.44 | 21.9 ± 0.38 | 21.3 ± 1.09 | 18 ± 1.05 | 16.8 ± 1.07 | 94 ± 1.06 µg/mL
3 | 44.4 ± 0.29 (≈ 141 µM) | c1ccc(N(CN2CCCc3ccccc32)c2ccccc2)cc1 [SF7, N-((3,4-dihydroquinolin-1(2H)-yl)methyl)-N-phenylaniline] | 103.18 ± 2.4 | 9.28 ± 0.13 | 26.76 ± 0.17 | 50.48 ± 0.054 | 64.48 ± 0.18 | 69.71 ± 0.65 | 63.12 ± 0.61 | 21.4 ± 0.48 | 17.5 ± 0.45 | 26.7 ± 1.1 | 21.6 ± 1.05 | 16.8 ± 1.03 | 100.8 ± 1.14 µg/mL
